US8288549B2, “Glycine B antagonist” (Merz Pharma GmbH & Co. KGaA, priority 2008, dated 2012)
Structures can show the parent of a compound that is named as a salt.

Test system: not given
Experiment: not given
Settings: not given

melting point | Structure (SMILES)
174 to 182 °C | Br.Br.NCCCC[C@H](Nc1nc2ccc(Cl)cc2cc1C(=O)O)C(=O)O
> 250 °C | Nc1cc(C[C@H](Nc2nc3ccc(Cl)cc3cc2C(=O)O)C(=O)O)ccc1O
150 to 175 °C (dec.) | O=C(O)c1cc2cc(Cl)ccc2nc1N[C@@H](Cc1ccc(O)c(Cl)c1)C(=O)O
> 180 °C (dec.) | O=C(O)c1ccc(CC(Nc2nc3ccc(Cl)cc3cc2C(=O)O)C(=O)O)cc1 (stereo not drawn)
> 250 °C (dec.) | Nc1ccc(CC(Nc2nc3ccc(Cl)cc3cc2C(=O)O)C(=O)O)cc1 (stereo not drawn)
165 to 170 °C (dec.) | COc1cccc(CC(Nc2nc3ccc(Cl)cc3cc2C(=O)O)C(=O)O)c1 (stereo not drawn)
> 180 °C (dec.) | COc1ccccc1CC(Nc1nc2ccc(Cl)cc2cc1C(=O)O)C(=O)O (stereo not drawn)
> 250 °C (dec.) | O=C(O)c1cccc(CC(Nc2nc3ccc(Cl)cc3cc2C(=O)O)C(=O)O)c1 (stereo not drawn)
177 to 181 °C | O=C(O)c1cc2cc(Cl)ccc2nc1NC(Cc1cccc(F)c1)C(=O)O (stereo not drawn)
> 170 °C (dec.) | O=C(O)c1cc2cc(Cl)ccc2nc1NC(Cc1cccnc1)C(=O)O (stereo not drawn)
> 166 °C (dec.) | O=C(O)c1cc2cc(Cl)ccc2nc1N[C@@H](Cc1ccc(Oc2ncccc2C(=O)O)cc1)C(=O)O (as salt: salt) [Example 100, 2-{(S)-1-Carboxy-2-[4-(3-carboxy-pyridin-2-yloxy)-phenyl]-ethylamino}-6-chloro-quinoline-3-carboxylic acid]
179 to 182 °C (dec.) | O=C(O)c1cc2cc(Cl)ccc2nc1NC(CCc1ccccc1)C(=O)O (stereo not drawn) [Example 28, 2-(1-Carboxy-3-phenyl-propylamino)-6-chloro-quinoline-3-carboxylic acid]
140 to 141.5 °C | O=C(O)c1cc2ccccc2nc1N[C@H](Cc1ccccc1)C(=O)O [Example 44, 2-((R)-1-Carboxy-2-phenyl-ethylamino)-quinoline-3-carboxylic acid]
> 160 °C (dec.) | O=C(O)c1cc2cc(Cl)ccc2nc1NC(Cc1ccc(O)c(F)c1)C(=O)O (stereo not drawn) [Example 52, 2-[1-Carboxy-2-(3-fluoro-4-hydroxy-phenyl)-ethylamino]-6-chloro-quinoline-3-carboxylic acid]
> 200 °C (dec.) | Cc1cc(C)n(CC(Nc2nc3ccc(Cl)cc3cc2C(=O)O)C(=O)O)n1 (stereo not drawn) [Example 57, 2-[1-Carboxy-2-(3,5-dimethyl-pyrazol-1-yl)-ethylamino]-6-chloro-quinoline-3-carboxylic acid]
164 to 173 °C | O=C(O)c1cc2cc(Cl)ccc2nc1NC(Cc1ccc(C#Cc2ccccc2)cc1)C(=O)O (stereo not drawn) [Example 62, 2-[1-Carboxy-2-(4-phenylethynyl-phenyl)-ethylamino]-6-chloro-quinoline-3-carboxylic acid]
180 to 185 °C | COc1ccc(Cl)c(CC(Nc2nc3ccc(Cl)cc3cc2C(=O)O)C(=O)O)c1 (stereo not drawn) [Example 68, 2-[1-Carboxy-2-(2-chloro-5-methoxy-phenyl)-ethylamino]-6-chloro-quinoline-3-carboxylic acid]
186 to 197 °C (dec.) | O=C(O)c1cc2cc(Cl)ccc2nc1NC(Cc1cccc(Oc2nc3ccc(Cl)cc3cc2C(=O)O)c1)C(=O)O (stereo not drawn) [Example 81, 2-{2-[3-(3-carboxy-6-chloro-quinolin-2-yloxy)-phenyl]-1-carboxy-ethylamino}-6-chloro-quinoline-3-carboxylic acid]
> 185 °C (dec.) | O=C(O)c1cc2cc(Cl)ccc2nc1NC(Cc1cccc(CC(Nc2nc3ccc(Cl)cc3cc2C(=O)O)C(=O)O)c1)C(=O)O (stereo not drawn) [Example 82, 2-{2-[3-[2-(3-Carboxy-6-chloro-quinolin-2-yl)amino-2-carboxy-ethyl]-phenyl]-1-carboxy-ethylamino}-6-chloro-quinoline-3-carboxylic acid]
> 250 °C (dec.) | O=C(O)c1cc2cc(Cl)ccc2nc1NC(Cc1cccs1)C(=O)O (stereo not drawn) [Example 83, 2-(1-Carboxy-2-thiophen-2-yl-ethylamino)-6-chloro-quinoline-3-carboxylic acid]
136 °C | O=C(O)c1cc2cc(Cl)ccc2nc1NC(Cc1ccc(Oc2ccc3ccccc3n2)cc1)C(=O)O (stereo not drawn) [Example 96, 2-{1-Carboxy-2-[4-(quinolin-2-yloxy)-phenyl]-ethylamino}-6-chloro-quinoline-3-carboxylic acid]
150 to 151 °C | O=C(O)c1cc2cc(Cl)ccc2nc1NC(COCc1ccccc1)C(=O)Nc1ccccc1 (stereo not drawn) [Example 117, 2-(2-Benzyloxy-1-phenylcarbamoyl-ethylamino)-6-chloro-quinoline-3-carboxylic acid]
230 to 250 °C (dec.) | O=C(O)c1cc2cc(Cl)ccc2nc1NC(C(=O)O)C(C(=O)O)c1cc(F)cc(F)c1 (stereo not drawn) [Example 136, 2-(3-Carboxy-6-chloro-quinolin-2-ylamino)-3-(3,5-difluoro-phenyl)-succinic acid]

Molecular target: T1, NMDA receptor glycine B site (Rattus norvegicus, UniProt P35439)
T1 construct: Hippocampi are then isolated from the brains of at least 8 embryos after decapitation; endogenous in cells; host or cells: primary cultured hippocampal neurons from E20 Sprague-Dawley rat embryos, 11-15 DIV
Experiment: Whole cell patch-clamp recordings in cultured rat hippocampal neurons (NMDA/D-Serine evoked currents)
Type: cell-based
Settings: NMDA (200 μM) and D-Serine (1 μM), holding potential −70 mV, read-out: NMDA-PC-r-HIC-NAM - IC50
Experimental: Antagonistic potencies of the test compounds are functionally evaluated using electrophysiological whole cell patch-clamp recordings and/or fluorometric intracellular Ca^2+-imaging (FLIPR) screens.
Cell preparation is performed as described by Parsons, et al. (Neuropharmacology, 1998, 37(6), 719-727). The female Sprague-Dawley rat is anaesthetised by placing in a saturated CO2-euthanasia chamber under further quiet CO2-influx. Under these conditions the rat loses consciousness after a few seconds and is then sacrificed by cervical dislocation. After opening the abdominal cavity, embryos (E20) are removed and stored in ice cold Ca^2+- and Mg^2+-free Hank's Buffered Salt Solution (pH 7.3), containing 4 g/l glucose (HBSS-CMF). Hippocampi are then isolated from the brains of at least 8 embryos after decapitation, transferred into ice cold HBSS-CMF and washed 3 to 4 times.
Hippocampi are pre-incubated for 8 min with a 0.66% trypsin (Sigma-Aldrich) and 0.1% (20 U/ml) DNAase solution (Sigma-Aldrich) in Ca^2+-free Phosphate Buffered Saline (PBS-CF) and washed 3 times with HBSS-CMF. Cells are then mechanically dissociated by trituration in a PBS-CF solution containing 0.05% (10 U/ml) DNAase and 0.3% of the trypsin inhibitor ovomucoid (all from Sigma-Aldrich). The cells are then centrifuged at 180×g for 10 minutes, and the cell pellet re-suspended in basal Minimum essential medium (MEM, Invitrogen, Karlsruhe, Germany), again carefully triturated to ensure maximal dissociation and finally plated in the flexiPERM inserts (Thermo Fisher Scientific, Langenselbold, Germany) at a density of 15×10^3 cells/cm^2 (0.5 ml/insert) onto poly-DL-ornithine (Sigma) and mouse laminin (Invitrogen) pre-coated plastic petri dishes. After 1 hour the cells become attached to the bottom of the dish and the inserts may be removed. The cells are then nourished with 2 ml MEM supplemented with 5% foetal calf serum (FCS) and 5% horse serum and incubated at 37° C. with 95% air and 5% CO2 at 95% humidity. After 4 days in vitro (DIV) further glial mitosis is inhibited by adding 10 μl of AraC (5 μM endconcentration). The medium is completely exchanged after an additional 2 DIV and again, but only partly (50%), after 8 DIV. The cells are used for electrophysiological recordings after 11-15 DIV.
Cells are visualised using an inverted microscope and selected for patching based upon their position and morphology. Voltage clamp recordings are made in the whole cell configuration of the patch clamp technique at a holding potential of −70 mV with the aid of an EPC-10 amplifier in combination with pipette manipulator. Patch clamp pipettes are pulled from borosilicate glass using a horizontal puller (P-97 Puller, Sutter Instruments, USA) and, when filled with intracellular solution, have resistances of 1-4 MΩ.
Solutions are delivered via a home-made gravity driven very fast perfusion system (<10 ms) including valves to switch flow on and off in combination with a stepper motor-driven double-barreled theta glass application pipette in order to expose cells to either agonist-free or agonist-containing solutions in presence or absence of antagonist.
The intracellular solution used consists of: 120 mM CsCl, 10 mM EGTA, 1 mM MgCl2, 200 μM CaCl2, 10 mM glucose and 22 mM tetraethyl ammonium chloride (TEA-CL). The corresponding extracellular bath solution contains: 140 mM NaCl, 3 mM KCl, 10 mM glucose, 10 mM HEPES, 1.5 mM CaCl2 and 4.5 mM sucrose (all from Sigma-Aldrich) pH 7.3, and is supplemented with 0.3 μM tetrodotoxin (TTX, Tocris, Bristol, U.K.) to block voltage-activated sodium channels and 0.25 μM bicuculline (Sigma-Aldrich) to block GABAA receptors. […]

IC50 [nM] | Structure (SMILES)
534 | O=C(O)c1cc2cc(Cl)ccc2nc1N[C@H](Cc1ccccc1)C(=O)O [Example 6, 2-((R)-1-Carboxy-2-phenyl-ethylamino)-6-chloro-quinoline-3-carboxylic acid]
1360 | Cn1cc(C[C@H](Nc2nc3ccc(Cl)cc3cc2C(=O)O)C(=O)O)c2ccccc21 [Example 15, 2-[(S)-1-Carboxy-2-(1-methyl-1H-indol-3-yl)-ethylamino]-6-chloro-quinoline-3-carboxylic acid]
898 | O=C(O)c1cc2cc(Cl)ccc2nc1N[C@@H](Cc1ccc(Cl)cc1)C(=O)O [Example 23, 2-[(S)-1-Carboxy-2-(4-chloro-phenyl)-ethylamino]-6-chloro-quinoline-3-carboxylic acid]
1670 | O=C(O)c1cc2cc(Cl)ccc2nc1N[C@@H](Cc1ccc(O)cc1)C(=O)O [Example 34, 2-[(S)-1-Carboxy-2-(4-hydroxy-phenyl)-ethylamino]-6-chloro-quinoline-3-carboxylic acid]
1150 | O=C(O)c1cc2cc(Cl)c(Cl)cc2nc1N[C@H](Cc1c[nH]c2ccccc12)C(=O)O [Example 36, 2-[(R)-1-Carboxy-2-(1H-indol-3-yl)-ethylamino]-6,7-dichloro-quinoline-3-carboxylic acid]
560 | O=C(O)c1cc2cc(Cl)ccc2nc1NC(Cc1ccc(Nc2ccc3ccccc3n2)cc1)C(=O)O (stereo not drawn) [Example 108, 2-{1-Carboxy-2-[4-(quinolin-2-ylamino)-phenyl]-ethylamino}-6-chloro-quinoline-3-carboxylic acid]
380 | O=C(O)c1cc2cc(Cl)ccc2nc1NC(Cc1ccc(Oc2nc3ccccc3cc2C(=O)O)cc1)C(=O)O (stereo not drawn) [Example 110, 2-{1-Carboxy-2-[4-(3-carboxy-quinolin-2-yloxy)-phenyl]-ethylamino}-6-chloro-quinoline-3-carboxylic acid]
720 | O=C(O)C[C@H](Nc1nc2ccc(Cl)cc2cc1C(=O)O)C(=O)O [Example 114, (S)-2-(3-Carboxy-6-chloro-quinolin-2-ylamino)-succinic acid ammonia hydrate]
510 | O=C(O)c1cc2cc(Cl)cc(Cl)c2nc1NC(Cc1cccc(F)c1)C(=O)O (stereo not drawn) [Example 115, 2-[1-Carboxy-2-(3-fluoro-phenyl)-ethylamino]-6,8-dichloro-quinoline-3-carboxylic acid]
190 | O=C(O)c1cc2cc(Cl)ccc2nc1N[C@@H](Cc1ccc(Oc2ccc3c(-c4ccccc4)nccc3n2)cc1)C(=O)O [Example 130, 2-{(S)-1-Carboxy-2-[4-(5-phenyl-[1,6]naphthyridin-2-yloxy)-phenyl]-ethylamino}-6-chloro-quinoline-3-carboxylic acid]
